Experimental data: ChEMBL document CHEMBL1201862, “PubChem BioAssay data set” (2004)
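Briefly, cells in 96-well plates were exposed to five compound concentrations for 48 h, and endpoints were estimated by linear interpolation. GI50: concentration for 50% inhibition of growth.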 Active and inactive are the calls of the source. Cut-off read from the data, not from the text of the source: active = GI50 up to about 1.1 µM and inactive = higher.

Columns and labels:
Assay in all cases: inhibition of tumour cell growth, NCI panel, 48 h
HOP-62 = test system: HOP-62
TK-10 = test system: TK-10
NCI-H226 = test system: NCI-H226
SK-MEL-2 = test system: SK-MEL-2
SF-539 = test system: SF-539
IGROV-1 = test system: IGROV-1
OVCAR-4 = test system: OVCAR-4
Malme-3M = test system: Malme-3M
CCRF-CEM = test system: CCRF-CEM
SF-268 = test system: SF-268
DLD-1 = test system: DLD-1
SF-295 = test system: SF-295
RXF 393 = test system: RXF 393
OVCAR-3 = test system: OVCAR-3
OVCAR-8 = test system: OVCAR-8
HL-60 = test system: HL-60
HCT-116 = test system: HCT-116
HCT-15 = test system: HCT-15
MDA-N = test system: MDA-N
T47D = test system: T47D

| SMILES | GI50 (HOP-62) | GI50 (TK-10) | GI50 (NCI-H226) | GI50 (SK-MEL-2) | GI50 (SF-539) | GI50 (IGROV-1) | GI50 (OVCAR-4) | GI50 (Malme-3M) | GI50 (CCRF-CEM) | GI50 (SF-268) | GI50 (DLD-1) | GI50 (SF-295) | GI50 (RXF 393) | GI50 (OVCAR-3) | GI50 (OVCAR-8) | GI50 (HL-60) | GI50 (HCT-116) | GI50 (HCT-15) [µM] | GI50 (MDA-N) | GI50 (T47D) |
| --- | --- | --- | --- | --- | --- | --- | --- | --- | --- | --- | --- | --- | --- | --- | --- | --- | --- | --- | --- | --- |
| N=C(CC(=O)Nc1ccc(Cl)cc1)Nc1ccccc1 | > 100 µM (inactive) | > 100 µM (inactive) | > 100 µM (inactive) | > 100 µM (inactive) | > 100 µM (inactive) | > 100 µM (inactive) | > 100 µM (inactive) | > 100 µM (inactive) | > 10 µM (inactive) | > 100 µM (inactive) | > 100 µM (inactive) | > 100 µM (inactive) | > 100 µM (inactive) | > 100 µM (inactive) | > 100 µM (inactive) | > 100 µM (inactive) | > 100 µM (inactive) | – | – | – |
| CCOc1ccccc1NC(=O)CSc1nnc(Cc2ccccc2)o1 | > 100 µM (inactive) | 71.1 µM (inactive) | 25.2 µM (inactive) | 23.8 µM (inactive) | 25.5 µM (inactive) | 47.5 µM (inactive) | 26.4 µM (inactive) | 15.6 µM (inactive) | 33.5 µM (inactive) | 23.9 µM (inactive) | 23.4 µM (inactive) | 98.4 µM (inactive) | 35.7 µM (inactive) | 17.1 µM (inactive) | 27 µM (inactive) | 35.7 µM (inactive) | 30.6 µM (inactive) | 17.3 | – | – |
| CCOC(=O)c1ccc(-n2c(SCC)nc3sc(C)c(C)c3c2=O)cc1 | > 100 µM (inactive) | > 100 µM (inactive) | > 100 µM (inactive) | > 100 µM (inactive) | > 100 µM (inactive) | > 100 µM (inactive) | 53.8 µM (inactive) | > 100 µM (inactive) | > 100 µM (inactive) | > 100 µM (inactive) | > 100 µM (inactive) | > 100 µM (inactive) | 94.8 µM (inactive) | 40.6 µM (inactive) | 68.7 µM (inactive) | > 100 µM (inactive) | > 100 µM (inactive) | > 100 | – | – |
| Cc1cc(C)c(C(=O)c2no[n+]([O-])c2C(=O)c2c(C)cc(C)c(Br)c2C)c(C)c1Br | 18.2 µM (inactive) | 9.31 µM (inactive) | 16.1 µM (inactive) | 14.1 µM (inactive) | 15.5 µM (inactive) | 6.15 µM (inactive) | 10.2 µM (inactive) | 14 µM (inactive) | 2.59 µM (inactive) | 11.5 µM (inactive) | 14.2 µM (inactive) | 16.9 µM (inactive) | 6.05 µM (inactive) | 13.6 µM (inactive) | 10.9 µM (inactive) | 3.35 µM (inactive) | 10.2 µM (inactive) | 13.5 | – | – |
| COc1cc(C2c3cc4c(cc3[C@@H](Nc3ccc(N(C)C)cc3)[C@H]3COC(=O)C23)OCO4)cc(OC)c1O (some centres not stated) | 0.103 µM (active) | 2.64 µM (inactive) | 0.0545 µM (active) | 2.37 µM (inactive) | 0.316 µM (active) | 3.56 µM (inactive) | 9.35 µM (inactive) | 1.41 µM (inactive) | 0.153 µM (active) | 0.351 µM (active) | 1.73 µM (inactive) | 0.122 µM (active) | 0.951 µM (active) | 8.04 µM (inactive) | 0.587 µM (active) | 0.193 µM (active) | 0.582 µM (active) | 0.838 | – | – |
| CCCCC1NC=Nc2c1ccc1c2[nH]c2ccccc21 (configuration not stated) | 5.32 µM (inactive) | 5.71 µM (inactive) | 7.62 µM (inactive) | 3.82 µM (inactive) | 3.05 µM (inactive) | 3.08 µM (inactive) | 2.7 µM (inactive) | 5.33 µM (inactive) | 1.67 µM (inactive) | 4 µM (inactive) | 2.47 µM (inactive) | 2.48 µM (inactive) | 0.713 µM (active) | 6.1 µM (inactive) | 2.03 µM (inactive) | 1.78 µM (inactive) | 1.91 µM (inactive) | 2.39 | 1.75 µM (inactive) | 1.45 µM (inactive) |
| COc1ccc(-c2csc(=[N+]3CCCCC3)s2)cc1 | 2.54 µM (inactive) | 29.3 µM (inactive) | 2.92 µM (inactive) | 3.63 µM (inactive) | 4.56 µM (inactive) | 4.54 µM (inactive) | 4.48 µM (inactive) | 2.76 µM (inactive) | 1.62 µM (inactive) | 1.42 µM (inactive) | 4.79 µM (inactive) | 1.98 µM (inactive) | 4.14 µM (inactive) | 3.92 µM (inactive) | 3.05 µM (inactive) | 2.29 µM (inactive) | 4.42 µM (inactive) | 47.3 | – | – |
| O=P1(c2ccccc2)CCCCC1 | > 100 µM (inactive) | > 100 µM (inactive) | > 100 µM (inactive) | > 100 µM (inactive) | > 100 µM (inactive) | > 100 µM (inactive) | > 100 µM (inactive) | > 100 µM (inactive) | > 100 µM (inactive) | – | > 100 µM (inactive) | > 100 µM (inactive) | > 100 µM (inactive) | > 100 µM (inactive) | > 100 µM (inactive) | > 100 µM (inactive) | > 100 µM (inactive) | > 100 | – | – |
| OC12c3ccccc3C1(N1CCOCC1)CCCCC21OCCCO1 (configuration not stated) | > 100 µM (inactive) | > 100 µM (inactive) | > 100 µM (inactive) | > 100 µM (inactive) | > 100 µM (inactive) | > 100 µM (inactive) | > 100 µM (inactive) | > 100 µM (inactive) | > 100 µM (inactive) | > 100 µM (inactive) | > 100 µM (inactive) | > 100 µM (inactive) | > 100 µM (inactive) | > 100 µM (inactive) | > 100 µM (inactive) | > 100 µM (inactive) | > 100 µM (inactive) | > 100 | – | – |
